Nine molecules from ChEMBL document CHEMBL4706748, “Targeting KRAS Mutant Cancers via Combination Treatment: Discovery of a Pyridopyridazinone pan-RAF Kinase Inhibitor” (ACS Med Chem Lett, 2021) can be followed below.

One may read the Ki as the equilibrium dissociation constant of an inhibitor or competing ligand from its target. The term IC50 denotes the concentration that inhibits the measured activity by half. As usually defined, the Papp A→B is the apparent permeability from the apical to the basolateral side of a cell layer. Usually efflux ratio stands for the permeability from basolateral to apical divided by that in the opposite direction, in the common usage. One may read the clearance as a measure of how efficiently the substance is removed, as volume per time. Higher therefore signals a high capacity for elimination. For orientation: Vd means the apparent volume that relates the amount in the body to the concentration in plasma or blood. A lower Vd goes with confinement near the circulation. In general, bioavailability refers to dose-corrected exposure relative to a reference, in per cent. A high value points to much systemic uptake. Broadly, the half-life is the time in which the quantity being followed falls by half. A low value points to fast loss.

For series [1], the system named is Mus musculus. As to the kind of experiment: In vivo inhibition of RAF in human HCT116 cells xenografted in NCR mouse assessed as inhibition of DUSP6 gene expression at 5 mg/kg, po qd for 4 days measured upto 24 hrs of last dose. Format: functional, organism-based. As to conditions: time 4.0 day. (Xenograft models place foreign cells or tissue in a host animal.)

The test system of series [2] is Mus musculus. The experiment in a line: In vivo inhibition of RAF in human HCT116 cells xenografted in NCR mouse assessed as inhibition of SPRY4 gene expression at 5 mg/kg, po qd for 4 days measured upto 24 hrs of last dose. Format: functional, organism-based. As to conditions: time 4.0 day.
The target of series [3] is Serine/threonine-protein kinase B-raf (Homo sapiens, UniProt P15056). The experiment in a line: Inhibition of BRAF (unknown origin) (416 to 766) assessed as using inactive phosphorylated MAP2K1 substrate preincubated for 30 mins measured after 90 mins by DELFIA assay.
Serine/threonine-protein kinase B-raf, sequence (P15056 whole entry): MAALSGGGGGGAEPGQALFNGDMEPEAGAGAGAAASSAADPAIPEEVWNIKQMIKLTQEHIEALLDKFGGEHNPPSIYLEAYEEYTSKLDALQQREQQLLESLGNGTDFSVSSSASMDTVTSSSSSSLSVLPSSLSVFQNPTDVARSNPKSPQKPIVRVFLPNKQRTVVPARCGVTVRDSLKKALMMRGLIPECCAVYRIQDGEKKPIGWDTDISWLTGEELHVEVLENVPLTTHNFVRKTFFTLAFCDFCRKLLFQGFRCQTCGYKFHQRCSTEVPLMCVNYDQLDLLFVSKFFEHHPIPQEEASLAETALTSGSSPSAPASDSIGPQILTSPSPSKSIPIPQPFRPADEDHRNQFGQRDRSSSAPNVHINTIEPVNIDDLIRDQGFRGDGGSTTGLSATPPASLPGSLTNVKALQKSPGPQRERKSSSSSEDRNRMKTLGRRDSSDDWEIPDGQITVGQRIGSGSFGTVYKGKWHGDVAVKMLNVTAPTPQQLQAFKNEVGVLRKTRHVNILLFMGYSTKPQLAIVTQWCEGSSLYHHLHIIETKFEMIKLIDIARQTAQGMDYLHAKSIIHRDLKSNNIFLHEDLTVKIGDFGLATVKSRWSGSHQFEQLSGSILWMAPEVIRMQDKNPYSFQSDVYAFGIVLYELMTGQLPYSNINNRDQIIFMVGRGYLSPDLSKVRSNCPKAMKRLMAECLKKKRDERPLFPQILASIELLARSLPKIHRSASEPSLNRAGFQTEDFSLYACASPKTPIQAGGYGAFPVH
In series [4] the target is RAF proto-oncogene serine/threonine-protein kinase (Homo sapiens, UniProt P04049, Y340D/Y341D). The experiment in a line: Inhibition of CRAF Y340D/Y341D mutant (unknown origin) assessed as using inactive phosphorylated MAP2K1 substrate preincubated for 30 mins measured after 90 mins by DELFIA assay.
RAF proto-oncogene serine/threonine-protein kinase, sequence (P04049 whole entry Y340D/Y341D): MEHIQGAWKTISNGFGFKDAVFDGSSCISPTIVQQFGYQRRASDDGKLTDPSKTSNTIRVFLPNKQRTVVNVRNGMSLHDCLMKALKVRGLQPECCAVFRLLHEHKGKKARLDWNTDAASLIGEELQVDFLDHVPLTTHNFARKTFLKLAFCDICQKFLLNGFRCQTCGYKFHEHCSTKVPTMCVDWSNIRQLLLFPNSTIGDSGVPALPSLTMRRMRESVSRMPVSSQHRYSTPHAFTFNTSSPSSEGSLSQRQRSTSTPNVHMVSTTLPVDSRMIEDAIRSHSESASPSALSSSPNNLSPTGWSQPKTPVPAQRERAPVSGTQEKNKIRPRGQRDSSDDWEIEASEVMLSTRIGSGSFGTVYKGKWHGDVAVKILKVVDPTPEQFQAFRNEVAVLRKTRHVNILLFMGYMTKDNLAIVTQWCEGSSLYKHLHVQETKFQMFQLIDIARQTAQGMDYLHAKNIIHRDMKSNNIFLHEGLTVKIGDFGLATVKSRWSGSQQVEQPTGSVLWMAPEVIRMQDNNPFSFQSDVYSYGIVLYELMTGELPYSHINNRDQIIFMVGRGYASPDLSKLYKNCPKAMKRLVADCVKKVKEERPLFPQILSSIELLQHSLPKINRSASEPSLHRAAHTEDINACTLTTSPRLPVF
Series [5] deals with A549. As to the kind of experiment: Antiproliferative activity against human A549 cells harboring KRAS mutant assessed as reduction in cell viability. Format: functional, cell-based.
Series [6] relates to A549. The experiment in a line: Synergistic antiproliferative activity against human A549 cells harboring KRAS mutant assessed as reduction in cell viability in presence of 100 nM cobi-metinib. The series is classed as functional, cell-based.
A short description of series [7]: Apparent permeability across apical to basolateral side in MDCK cells. As to conditions: dog. The series is classed as ADME, cell-based, Canis lupus familiaris.
The nature of series [8]: Efflux ratio of permeability across basolateral to apical side over apical to basolateral side in MDCK cells. Format: ADME, cell-based, Canis lupus familiaris. As to conditions: dog.
Series [9] is described as follows: Clearance in mouse at 1 mg/kg, iv. As to conditions: in vivo. The series is classed as ADME, organism-based.
Series [10] is described as follows: Volume of distribution in mouse at 1 mg/kg, iv. Format: ADME, organism-based. As to conditions: in vivo.
Series [11] can be described thus: Oral bioavailability in mouse at 5 mg/kg. As to conditions: in vivo. Format: ADME, organism-based.
Series [12] can be described thus: Half life in mouse. The series is classed as ADME, organism-based. As to conditions: in vivo.
Series [13] has as its system Mus musculus. The experiment in a line: In vivo inhibition of RAF in human HCT116 cells xenografted in NCR mouse assessed as inhibition of DUSP6 gene expression at 15 mg/kg, po qd for 4 days measured upto 24 hrs of last dose. Format: functional, organism-based. As to conditions: time 4.0 day.
In series [14] the test system is Mus musculus. The experiment in a line: In vivo inhibition of RAF in human HCT116 cells xenografted in NCR mouse assessed as inhibition of SPRY4 gene expression at 15 mg/kg, po qd for 4 days measured upto 24 hrs of last dose. As to conditions: time 4.0 day. The series is classed as functional, organism-based.
The test system of series [15] is Mus musculus. As to the kind of experiment: In vivo inhibition of RAF in human HCT116 cells xenografted in NCR mouse assessed as inhibition of DUSP6 gene expression in presence of Cobi-metinib at 15 mg/kg, po qd for 4 days measured upto 8 hrs of last dose. Format: functional, organism-based. As to conditions: time 4.0 day.
Series [16] has as its system Mus musculus. The experiment in a line: In vivo inhibition of RAF in human HCT116 cells xenografted in NCR mouse assessed as inhibition of SPRY4 gene expression in presence of Cobi-metinib at 15 mg/kg, po qd for 4 days measured upto 8 hrs of last dose. The series is classed as functional, organism-based. As to conditions: time 4.0 day.
The subject of series [17] is Mus musculus. The experiment in a line: In vivo inhibition of RAF in human HCT116 cells xenografted in NCR mouse assessed as inhibition of pRSK gene expression in presence of Cobi-metinib at 15 mg/kg, po qd for 4 days measured upto 8 hrs of last dose. The series is classed as functional, organism-based. As to conditions: time 4.0 day.
Series [18] relates to Mus musculus. The experiment in a line: In vivo inhibition of RAF in human HCT116 cells xenografted in NCR mouse assessed as inhibition of pRSK gene expression in presence of Cobi-metinib at 15 mg/kg, po qd for 4 days measured at 24 hrs of last dose. As to conditions: time 4.0 day. Format: functional, organism-based.
Series [19] relates to Mus musculus. As to the kind of experiment: In vivo inhibition of RAF in human HCT116 cells xenografted in NCR mouse assessed as inhibition of DUSP6 gene expression in presence of Cobi-metinib at 15 mg/kg, po qd for 4 days measured at 24 hrs of last dose. The series is classed as functional, organism-based. As to conditions: time 4.0 day.
In series [20] the test system is Mus musculus. The experiment in a line: In vivo inhibition of RAF in human HCT116 cells xenografted in NCR mouse assessed as inhibition of SPRY4 gene expression in presence of Cobi-metinib at 15 mg/kg, po qd for 4 days measured at 24 hrs of last dose. Format: functional, organism-based. As to conditions: time 4.0 day.
Series [21] deals with A-375. As to the kind of experiment: Antiproliferative activity against human A375 cells harboring BRAF mutant assessed as reduction in cell viability. The series is classed as functional, cell-based.

The source made the active and inactive calls. The rule behind the calls is not given here.

In the case of `O=C(c1ccc(F)c(F)c1Nc1ccc(I)cc1F)N1CC(O)([C@@H]2CCCCN2)C1`, the inhibition result in series [1] and in series [2] was “Active” throughout.

As to `Cc1cc(F)c(NC(=O)c2cccc(C(C)(C)C#N)c2)cc1-c1cnc2c(=O)n(C)ncc2c1`, the figures for the Ki in [3] and in [4] were 0.19 nM and 0.062 nM, respectively. Further, the IC50 in series [5] came out at 5470 nM; in [6], 369 nM. Moreover, in series [7], the Papp A→B stood at 140 nm/s. Also, in series [8], the efflux ratio stood at 0.86. For the same molecule, the clearance in series [9] stood at 1.02 L/h/kg. Besides, in series [10], the Vd was found to be 1.7 L/kg. This molecule returned a bioavailability in series [11] of 37%. Also, the half-life in series [12] was 1.9 h. Further, the inhibition entry in series [13], in [14], in [15], in [16] and in series [17] was “Active” each time. Moreover, the inhibition entry in [18], in series [19] and in series [20] was “inactive” in each case.

For the molecule `Cc1cc(F)c(NC(=O)NCCC(C)(C)C)cc1-c1ccc2c(=O)n(C)ncc2c1`, the results for the Ki in series [3] and in series [4] were below 0.08 nM and below 0.05 nM, respectively. For the same molecule, the IC50 is 1590 nM in [5], 210 nM in series [21] and 187 nM in series [6]. Besides, the Papp A→B in series [7] is 87 nm/s. Besides, the efflux ratio in series [8] amounted to 0.5. This molecule displayed a clearance in series [9] of 1.32 L/h/kg. The same molecule had a Vd in series [10] of 2.1 L/kg. The bioavailability in series [11] was 2%. The molecule further showed a half-life in series [12] of 1.3 h.

On to `Cc1cc(F)c(C(=O)NCCCC(C)(C)C)cc1-c1ccc2c(=O)n(C)ncc2c1`, for which the figures for the Ki in [3] and in [4] were 0.12 nM and 0.06 nM, respectively. The IC50 in series [5] worked out at 7730 nM; in series [6], 1120 nM. The Papp A→B in series [7] stood at 81 nm/s. The efflux ratio in series [8] was found to be 0.74.

`Cc1cc(F)c(NC(=O)NCCC(C)(C)C)cc1Nc1ccc2ncn(C)c(=O)c2c1F`: the Ki in series [3] was below 0.08 nM. In addition, the IC50 in series [5] and in series [6] was 2900 nM each time.

`Cc1cc(F)c(NC(=O)NCCC(C)(C)C)cc1-c1ccc2cc(N)ncc2c1`: the Ki in [3] is below 0.08 nM; in [4], below 0.05 nM. Moreover, the IC50 worked out at 668 nM in [5], 224 nM in series [21] and 148 nM in series [6].

Turning to `CNc1ncc2cc(-c3cc(NC(=O)NCCC(C)(C)C)c(F)cc3C)c(=O)n(C)c2n1`, the Ki in [3] came to 0.102 nM; in series [4], 0.081 nM. Also, the IC50 in series [5] is 337 nM; in series [21] it was 32.2 nM; in series [6], 39.2 nM.

For `Cc1cc(F)c(NC(=O)c2cccc(C(C)(C)C#N)c2)cc1-c1ccc2c(=O)n(C)ncc2c1`, the results for the Ki in [3] and in series [4] were below 0.08 nM and below 0.05 nM, respectively. Besides, the IC50 worked out at 1360 nM in [5] and 138 nM in [6]. The Papp A→B in [7] was determined as 78 nm/s. Further, the efflux ratio in series [8] is 1.

For `CNc1ncc2cc(-c3cc(NC(=O)NCCC(C)(C)C)c(F)cc3C)c(C)nc2n1` [LY-3009120], the IC50 came to 545 nM in [5], 28.3 nM in series [21] and 45.6 nM in series [6].
